ChEMBL document CHEMBL1140793, “Amino acid derivatives as histone deacetylase inhibitors” (2008)

Assays:
[1] = target: Histone deacetylase 1 (Homo sapiens) (UniProt Q13547); test: Inhibition of HDAC1
HCT-116 = test: Growth inhibition of human HCT116 cells after 72 hrs; format: functional

Chain of Histone deacetylase 1 (Homo sapiens) (Q13547 whole entry): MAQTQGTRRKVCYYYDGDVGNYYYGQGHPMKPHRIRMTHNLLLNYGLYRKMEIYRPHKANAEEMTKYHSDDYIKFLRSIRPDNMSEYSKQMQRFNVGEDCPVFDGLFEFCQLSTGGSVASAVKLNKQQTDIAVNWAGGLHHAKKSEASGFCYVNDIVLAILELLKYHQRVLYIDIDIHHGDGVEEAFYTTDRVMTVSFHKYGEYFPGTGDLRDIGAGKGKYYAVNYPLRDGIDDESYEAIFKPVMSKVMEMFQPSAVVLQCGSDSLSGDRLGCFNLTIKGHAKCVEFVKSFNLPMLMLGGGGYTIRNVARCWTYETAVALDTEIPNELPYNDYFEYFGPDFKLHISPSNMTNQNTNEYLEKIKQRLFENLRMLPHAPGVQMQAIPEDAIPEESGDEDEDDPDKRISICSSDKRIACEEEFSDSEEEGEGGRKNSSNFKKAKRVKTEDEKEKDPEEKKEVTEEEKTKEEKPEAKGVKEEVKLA

Row | Structure (SMILES) | Inflection point [1] [nM] | Inflection point (HCT-116) [nM]
1 | CN1CCN(C(C(=O)Nc2ccc(Cl)cc2)c2ccc(C(=O)Nc3ccccc3N)cc2)CC1 (stereo not drawn) | 6200 | 
2 | Cc1ccc(NC(=O)C(NC(=O)Cc2ccccc2)c2ccc(C(=O)Nc3ccccc3N)cc2)cc1 (stereo not drawn) | 690 | 8100
3 | CCN1CCN(C(C(=O)NCc2ccccc2)c2ccc3cc(C(=O)Nc4ccccc4N)sc3c2)CC1 (stereo not drawn) | 80 | 490
4 | Nc1ccccc1NC(=O)c1cc2ccc(C(NCCc3ncc[nH]3)C(=O)NCc3ccccc3)cc2s1 (stereo not drawn) | 520 | 
5 | Cc1ccc(NC(=O)C(c2ccc3cc(C(=O)Nc4ccccc4N)sc3c2)N2CCN(C)CC2)cc1 (single isomer, unassigned; enantiomer 2) [listing 1 of 2 here] |  | 560
6 | CN1CCN(C(C(=O)NCc2ccccc2)c2ccc3cc(C(=O)Nc4ccccc4N)sc3c2)CC1 (stereo not drawn) | 110 | 430
7 | Cc1ccc(NC(=O)C(c2ccc3cc(C(=O)Nc4ccccc4N)sc3c2)N2CCN(C)CC2)cc1 (single isomer, unassigned; enantiomer 2) [listing 2 of 2 here] | 18 | 
8 | Nc1ccccc1NC(=O)c1cc2ccc(C(NCCO)C(=O)NCc3ccccc3)cc2s1 (stereo not drawn) | 150 | 
9 | Cc1ccc(NC(=O)C(c2ccc3cc(C(=O)Nc4ccccc4N)sc3c2)N2CCN(C)CC2)cc1 (single isomer, unassigned; enantiomer 1) [listing 1 of 2 here] |  | 130
10 | CN1CCN(C(C(=O)Nc2ccc3ccccc3c2)c2ccc3cc(C(=O)Nc4ccccc4N)sc3c2)CC1 (stereo not drawn) | 25 | 580
11 | Nc1ccccc1NC(=O)c1cc2ccc(C(C(=O)NCc3ccccc3)N3CCN(c4ccccc4)CC3)cc2s1 (stereo not drawn) | 150 | 
12 | COc1ccc(NC(=O)C(c2ccc3cc(C(=O)Nc4ccccc4N)sc3c2)N2CCN(C)CC2)cc1 (stereo not drawn) | 43 | 410
13 | Nc1ccccc1NC(=O)c1cc2ccc(C(C(=O)NCc3ccccc3)N3CCN(C(=O)OCc4ccccc4)CC3)cc2s1 (stereo not drawn) | 470 | 
14 | Cc1ccc(NC(=O)C(c2ccc3cc(C(=O)Nc4ccccc4N)sc3c2)N2CCN(C)CC2)cc1 (single isomer, unassigned; enantiomer 1) [listing 2 of 2 here] | 21 | 
15 | Nc1ccccc1NC(=O)c1cc2ccc(C(C(=O)NCc3ccccc3)N3CCN(C/C=C/c4ccccc4)CC3)cc2s1 (stereo not drawn) | 230 | 
16 | Cc1ccc(NC(=O)C(c2ccc3cc(C(=O)Nc4ccccc4N)sc3c2)N2CCN(C)CC2)cc1 (racemic) [listing 2 of 2 here] |  | 240
17 | CC(C)(C)OC(=O)N1CCN(C(C(=O)NCc2ccccc2)c2ccc3cc(C(=O)Nc4ccccc4N)sc3c2)CC1 (stereo not drawn) | 260 | 
18 | Nc1ccccc1NC(=O)c1cc2ccc(C(NCCc3ccncc3)C(=O)NCc3ccccc3)cc2s1 (stereo not drawn) | 39 | 
19 | Nc1ccccc1NC(=O)c1ccc(C(C(=O)Nc2ccc3ccccc3c2)N2CCN(c3ccccc3)CC2)cc1 (stereo not drawn) | 620 | 

Now from value to molecule, other results behind:

Row | Inflection point [1] [nM] | Structure (SMILES) | Inflection point (HCT-116) [nM]
20 | 79 | COc1ccc(NC(=O)C(NCc2ccccc2)c2ccc3cc(C(=O)Nc4ccccc4N)sc3c2)cc1 (stereo not drawn) | 
21 | 90 | COc1ccc(CNC(C(=O)Nc2ccc(OC)cc2)c2ccc3cc(C(=O)Nc4ccccc4N)sc3c2)cc1 (stereo not drawn) | 
22 | 260 | COc1ccc(NC(=O)C(NC(=O)CCc2ccccc2)c2ccc(C(=O)Nc3ccccc3N)cc2)cc1 (stereo not drawn) | 2800
23 | 110 | Nc1ccccc1NC(=O)c1cc2ccc(C(NCCc3ccccn3)C(=O)NCc3ccccc3)cc2s1 (stereo not drawn) | 
24 | 230 | Nc1ccccc1NC(=O)c1cc2ccc(C(NCCc3ccccc3)C(=O)NCCN3CCOCC3)cc2s1 (stereo not drawn) | 
25 | 32 | COc1ccc(NC(=O)C(NCCc2ccncc2)c2ccc3cc(C(=O)Nc4ccccc4N)sc3c2)cc1 (stereo not drawn) | 
26 | 4 | COc1ccc(NC(=O)C(NCc2ccccc2)c2ccc3cc(C(=O)NO)sc3c2)cc1 (stereo not drawn) | 
27 | 150 | CN(C)CCNC(C(=O)NCc1ccccc1)c1ccc2cc(C(=O)Nc3ccccc3N)sc2c1 (stereo not drawn) | 
28 | 25 | Cc1ccc(NC(=O)C(c2ccc3cc(C(=O)Nc4ccccc4N)sc3c2)N2CCN(C)CC2)cc1 (racemic) [listing 1 of 2 here] | 
29 | 360 | CN1CCN(C(C(=O)Nc2ccc3ccccc3c2)c2ccc(C(=O)Nc3ccccc3N)cc2)CC1 (stereo not drawn) | 640
30 | 310 | CN1CCN(C(Cc2ccc(C(=O)Nc3ccccc3N)cc2)C(=O)Nc2ccc(Cl)cc2)CC1 (stereo not drawn) | 370
31 | 62 | CN1CCN(C(C(=O)Nc2ccc(Cl)cc2)c2ccc3cc(C(=O)Nc4ccccc4N)sc3c2)CC1 (stereo not drawn) | 340
32 | 170 | COCCNC(C(=O)NCc1ccccc1)c1ccc2cc(C(=O)Nc3ccccc3N)sc2c1 (stereo not drawn) | 
33 | 70 | Nc1ccccc1NC(=O)c1cc2ccc(C(NCCc3ccccc3)C(=O)NCc3ccccc3)cc2s1 (stereo not drawn) | 
34 | 74 | COc1ccc(NC(=O)C(NC2CCCCC2)c2ccc3cc(C(=O)Nc4ccccc4N)sc3c2)cc1 (stereo not drawn) | 
35 | 860 | CN1CCN(C(C(=O)NCc2ccccc2)c2ccc(C(=O)Nc3ccccc3N)cc2)CC1 (stereo not drawn) | 
36 | 71 | COc1ccc(NC(=O)C(NCCc2ccccc2)c2ccc3cc(C(=O)Nc4ccccc4N)sc3c2)cc1 (stereo not drawn) | 
37 | 180 | Nc1ccccc1NC(=O)c1cc2ccc(C(NCc3cccnc3)C(=O)NCc3ccccc3)cc2s1 (stereo not drawn) | 
38 | 180 | Nc1ccccc1NC(=O)c1cc2ccc(C(C(=O)NCc3ccccc3)N3CCN(CCc4ccccc4)CC3)cc2s1 (stereo not drawn) | 
39 | 680 | Nc1ccccc1NC(=O)c1ccc(C(C(=O)Nc2ccc3ccccc3c2)N2CCN(CCc3ccccc3)CC2)cc1 (stereo not drawn) | 
40 | 37 | CN1CCN(C(Cc2ccc(C(=O)Nc3ccccc3N)cc2)C(=O)Nc2ccc3ccccc3c2)CC1 (stereo not drawn) | 220
41 | 250 | Nc1ccccc1NC(=O)c1ccc(C(NC(=O)CCc2ccccc2)C(=O)Nc2ccc3ccccc3c2)cc1 (stereo not drawn) | 2700
42 | 870 | COc1ccc(NC(=O)C(NC(=O)Cc2ccccc2)c2ccc(C(=O)Nc3ccccc3N)cc2)cc1 (stereo not drawn) | 6400
43 | 170 | Nc1ccccc1NC(=O)c1ccc(C(NC(=O)Cc2ccccc2)C(=O)Nc2ccc3ccccc3c2)cc1 (stereo not drawn) | 2700
44 | 340 | Cc1ccc(NC(=O)C(NC(=O)CCc2ccccc2)c2ccc(C(=O)Nc3ccccc3N)cc2)cc1 (stereo not drawn) | 3000
